{
  "source": "patent US8642352B2",
  "about": "“Methods and systems for detection of stoichiometry by Förster resonance energy transfer” (California Institute of Technology, priority 2009, dated 2014)",
  "key": {"α4β2 nAChRs [1]": {"molecular_target": "T1, α4β2 nAChRs (Mus musculus, UniProt O70174+Q9ERK7)", "T1 sequence (O70174 31-629)": "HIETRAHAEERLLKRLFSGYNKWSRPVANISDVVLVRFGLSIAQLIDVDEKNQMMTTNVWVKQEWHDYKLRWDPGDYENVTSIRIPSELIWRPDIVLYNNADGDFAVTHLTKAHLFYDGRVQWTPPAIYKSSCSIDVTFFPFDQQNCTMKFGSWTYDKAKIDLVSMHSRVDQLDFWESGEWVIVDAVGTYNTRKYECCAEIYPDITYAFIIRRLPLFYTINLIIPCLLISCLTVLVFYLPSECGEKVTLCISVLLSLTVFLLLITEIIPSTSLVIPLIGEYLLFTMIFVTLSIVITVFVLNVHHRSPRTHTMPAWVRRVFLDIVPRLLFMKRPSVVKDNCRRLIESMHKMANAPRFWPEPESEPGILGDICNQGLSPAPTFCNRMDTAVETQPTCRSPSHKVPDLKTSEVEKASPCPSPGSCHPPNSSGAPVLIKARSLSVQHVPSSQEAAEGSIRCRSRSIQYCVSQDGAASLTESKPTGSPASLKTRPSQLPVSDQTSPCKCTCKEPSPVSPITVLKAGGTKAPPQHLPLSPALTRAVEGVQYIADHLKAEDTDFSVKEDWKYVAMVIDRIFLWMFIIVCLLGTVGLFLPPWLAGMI", "T1 sequence (Q9ERK7 26-501)": "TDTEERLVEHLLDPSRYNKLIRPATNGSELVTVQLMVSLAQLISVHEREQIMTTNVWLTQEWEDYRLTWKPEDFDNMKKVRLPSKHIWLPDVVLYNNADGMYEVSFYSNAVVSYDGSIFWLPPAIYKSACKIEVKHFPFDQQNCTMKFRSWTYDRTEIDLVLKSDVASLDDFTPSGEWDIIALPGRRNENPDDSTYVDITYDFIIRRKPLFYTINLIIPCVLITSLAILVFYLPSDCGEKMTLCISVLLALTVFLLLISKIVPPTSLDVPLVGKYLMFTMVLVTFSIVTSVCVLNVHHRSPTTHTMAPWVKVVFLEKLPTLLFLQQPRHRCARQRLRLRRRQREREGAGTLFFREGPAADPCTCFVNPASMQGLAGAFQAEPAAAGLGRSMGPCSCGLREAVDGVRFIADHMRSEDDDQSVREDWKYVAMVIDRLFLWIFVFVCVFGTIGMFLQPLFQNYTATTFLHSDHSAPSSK", "conditions": "α4:β2 cDNA ratio 1:1, exposed to nicotine, N2a cells", "protocol": "(§1) In the experimental procedures illustrated in the present disclosure N2a cells were cultured at 37° C. in 95% air, 5% CO2 in medium composed of 44.5% DMEM, 44.5% OptiMEM1, 5% FBS, 100 I.U./ml penicillin and 100 μg/ml streptomycin. For all experiments, cells were plated onto poly-d-lysine coated 35 mm culture dishes with 14 mm glass bottoms. Transfections were performed using a modification of the manufacturer's Lipofectamine and Plus reagent protocol, resulting in non-saturated expression levels of nAChRs (Imoukhuede et al., 2009; Moss et al., 2009; Son et al., 2009). Nicotine at 1 μM final concentration was added to the appropriate dishes (nicotine was replenished with each media change)."}, "α4β2 nAChRs [2]": {"molecular_target": "α4β2 nAChRs (Homo sapiens, UniProt P17787+P43681)", "sequence (P43681 29-627 limits assumed)": "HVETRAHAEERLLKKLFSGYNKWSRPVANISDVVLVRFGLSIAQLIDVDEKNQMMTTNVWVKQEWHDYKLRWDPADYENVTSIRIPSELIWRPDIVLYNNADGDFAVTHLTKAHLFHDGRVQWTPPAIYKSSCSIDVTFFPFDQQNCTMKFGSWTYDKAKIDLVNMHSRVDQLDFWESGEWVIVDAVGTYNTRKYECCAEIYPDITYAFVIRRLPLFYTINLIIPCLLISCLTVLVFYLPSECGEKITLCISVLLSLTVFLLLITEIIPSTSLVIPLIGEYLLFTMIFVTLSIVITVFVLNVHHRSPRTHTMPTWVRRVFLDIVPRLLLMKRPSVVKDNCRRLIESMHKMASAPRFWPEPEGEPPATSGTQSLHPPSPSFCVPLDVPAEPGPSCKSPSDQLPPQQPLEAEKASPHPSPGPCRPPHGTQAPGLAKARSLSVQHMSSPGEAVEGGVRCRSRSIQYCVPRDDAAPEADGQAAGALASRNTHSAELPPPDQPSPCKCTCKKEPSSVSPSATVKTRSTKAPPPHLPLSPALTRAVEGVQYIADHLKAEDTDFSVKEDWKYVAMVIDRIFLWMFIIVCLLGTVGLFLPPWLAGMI", "sequence (P17787 26-502)": "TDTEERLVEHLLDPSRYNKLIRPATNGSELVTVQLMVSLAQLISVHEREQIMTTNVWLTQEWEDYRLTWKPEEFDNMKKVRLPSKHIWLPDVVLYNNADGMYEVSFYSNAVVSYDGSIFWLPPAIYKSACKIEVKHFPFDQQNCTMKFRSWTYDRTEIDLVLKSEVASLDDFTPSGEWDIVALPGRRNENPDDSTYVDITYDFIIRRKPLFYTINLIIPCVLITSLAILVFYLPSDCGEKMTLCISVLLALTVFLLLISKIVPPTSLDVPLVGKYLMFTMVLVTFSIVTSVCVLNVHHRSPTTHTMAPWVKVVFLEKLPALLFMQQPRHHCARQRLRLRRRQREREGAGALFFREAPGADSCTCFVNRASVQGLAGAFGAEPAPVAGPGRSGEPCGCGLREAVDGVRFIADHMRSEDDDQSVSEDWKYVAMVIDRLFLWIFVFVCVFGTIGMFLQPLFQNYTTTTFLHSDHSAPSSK", "conditions": "α4:β2 cDNA ratio 1:1, nicotine; Nelson et al., 2003; cited from earlier work"}, "ADNFLE α4β2 receptors": {"test_system": "ADNFLE α4β2 receptors", "protocol": "The data on comparative stoichiometry from acceptor photobleach FRET, pixel-based FRET, and FIR measurements obtained from the experiments exemplified in the above examples and in the related figures can be summarized. In particular data gathered for the various subunit transfection ratios, various mutants, and various labeling strategies were analyzed by the relation in FIG. 3D or by Equations 13 and 14, as appropriate.\nThe effects of nicotine can also be summarized; in each case, the experiment compared incubation vs. saline."}, "α4β2 nAChRs [3]": {"molecular_target": "T1, α4β2 nAChRs", "protocol": "(§2) Live cells are imaged using the Eclipse C1si laser scanning confocal microscope. Full emission spectra images are acquired in 5 nm bins between 450 nm and 610 nm, linearly unmixed using reference spectra from samples expressing solely the donor- or acceptor-tagged fusion constructs to unambiguously separate the donor and acceptor signal from each pixel of the spectral images. Transfections of cells expressing only the donor- or acceptor-tagged fusion protein are performed for every imaging session to control for pixel saturation and spectral bleedthrough (SBT). Where appropriate, non-fluorescent subunit cDNAs are included in the transfection to ensure the faithful expression and subcellular localization of the single fluorescent species. Control samples expressing only the donor-fused constructs are imaged with the appropriate laser line and unmixed with acceptor and donor emission spectra. The unmixed acceptor images are termed the FRETd channel, and the fluorescence intensity of each pixel is termed (IFRETd). The donor fluorophore images are the “Donor” channel and pixel intensities are described by Idonor. A montage of all the FRETd channel images and a second montage of all the Donor channel images are assembled and compiled into an image stack called the “Donor SBT stack” in the order FRETd channel, Donor channel.\n(§3) Two spectral images of each cell expressing only the acceptor-fused constructs are acquired, the first excited by the donor specific laser line and the second with the acceptor specific laser line. The acceptor fluorophore signal is unmixed from each image."}, "α4β2 receptors": {"molecular_target": "α4β2 receptors (Mus musculus, UniProt O70174+Q9ERK7)", "sequence (O70174 31-629)": "as the sequence (O70174 31-629) above", "sequence (Q9ERK7 26-501)": "as the sequence (Q9ERK7 26-501) above", "source_text": "Cells were transfected with membrane-targeted mCherry, α4GFP, and unlabeled β2. Left panels, mCherry; middle panels, α4GFP; right panels, overlay. […] Scale bars, 5 μm.\nAll results from microscopy analysis will be correlated to receptor function using whole cell electrophysiology."}, "α4β2 V287L nAChR [4]": {"molecular_target": "T2, α4β2 V287L nAChR (Mus musculus, UniProt O70174+Q9ERK7, V287L)", "T2 sequence (O70174 31-629)": "as the sequence (O70174 31-629) above", "T2 sequence (Q9ERK7 26-501 V287L)": "as the sequence (Q9ERK7 26-501) above, with V262L counted along it", "protocol": "as §1\n(§4) N2a cells were visualized at room temperature in extracellular buffer, 48 h after transfection. A series of lambda stack X-Y images were collected with the Eclipse C1si laser scanning confocal microscope according to procedures exemplified in Example 5. Dequenching of CFP fluorescence during incremental photobleaching of YFP was performed and analyzed as previously described (Nashmi et al., 2003; Drenan et al., 2008). FRET efficiency (E) was calculated according to (Equation 1).\n(§5) IDA represents the normalized fluorescence intensity of the donor (100%) in the presence of non-bleached acceptor. ID represents the normalized fluorescence intensity of the donor following 100% photobleach of the acceptor. The ID value was extrapolated from a scatter plot of the percentage increase of donor intensity versus the percentage decrease of acceptor intensity for each cell (Nashmi et al., 2003).\n(§6) A series of experiments were carried out with WT nAChR and ADFLE mutated nAChR were performed using image acquisition by FRET acceptor photobleach to detect nAChR stoichiometry before and after contact with nicotine."}, "WT α4β2 nAChRs": {"molecular_target": "WT α4β2 nAChRs (Mus musculus, UniProt O70174+Q9ERK7)", "sequence (O70174 31-629)": "as the sequence (O70174 31-629) above", "sequence (Q9ERK7 26-501)": "as the sequence (Q9ERK7 26-501) above", "protocol": "as §1, §4, §5, §6"}, "α4β2 V287L nAChR [5]": {"molecular_target": "T2, α4β2 V287L nAChR", "conditions": "1 μM nicotine for 48 h", "source_text": "(§7) Live cells were imaged using the Eclipse C1si laser scanning confocal microscope according to procedures exemplified in Example 5. Full emission spectra images are acquired in 5 nm bins between 450 nm and 610 nm, linearly unmixed using reference spectra from samples expressing solely the donor- or acceptor-tagged fusion constructs to unambiguously separate the donor and acceptor signal from each pixel of the spectral images.\nas §2, §3"}, "α4 S248F β2 nAChR": {"molecular_target": "α4 S248F β2 nAChR (Mus musculus, UniProt O70174+Q9ERK7, S282F)", "sequence (O70174 31-629 S282F)": "as the sequence (O70174 31-629) above, with S252F counted along it", "sequence (Q9ERK7 26-501)": "as the sequence (Q9ERK7 26-501) above", "conditions": "α4 subunits carrying S248F and XFP, nicotine 1 μM, 48 h", "source_text": "as §7, §2, §3"}},
  "data": [
    {"smiles": "CN1CCCC1c1cccnc1", "note": "(centres unmarked) [Nicotine, nicotine]", "values": [
      {"measurement": "Percent of (α4)3(β2)2 for WT nAChRs, FIR", "setting": "α4β2 nAChRs [1]", "result": 73, "unit": "%"},
      {"measurement": "Percent of (α4)3(β2)2 for WT nAChRs, Reported", "setting": "α4β2 nAChRs [2]", "result": "68 ± 5", "unit": "%"},
      {"measurement": "Percentage of (α4)3(β2)2 ADNFLE receptors after nicotine incubation relative to saline incubation", "setting": "ADNFLE α4β2 receptors; at least five experiments", "result": 0.8},
      {"measurement": "Ratio nicotine/saline of percentage of (α4)3(β2)2 ADNFLE receptors, all cases", "setting": "ADNFLE α4β2 receptors; each of at least five experiments", "result": "< 1"},
      {"measurement": "Receptor population in the Golgi", "setting": "α4β2 nAChRs [3]; trans-Golgi ROI (GalT-CFP), 1 μM nicotine, 4 h post-exposure", "result": "pure (α4)2(β2)3 receptor population"},
      {"measurement": "Duration of the stoichiometry switch post nicotine exposure", "setting": "α4β2 nAChRs [3]; whole cell NFRET", "result": "at least 24 h"},
      {"measurement": "Receptor population expressing the high-sensitivity (α4)2(β2)3 stoichiometry", "setting": "α4β2 nAChRs [3]; whole cell NFRET distribution, 4 h exposure to a saturating dose (1 μM) of nicotine", "result": 80, "unit": "%"},
      {"measurement": "Upregulation at the plasma membrane by TIRFM", "setting": "α4β2 receptors; 4 h of 1 μM nicotine exposure", "result": "sufficient to cause upregulation at the plasma membrane"},
      {"measurement": "α4GFP fluorescence in TIRF images", "setting": "α4β2 receptors; incubation for 48 h in nicotine, α4GFP plus unlabeled β2", "result": "much brighter"},
      {"measurement": "FRET efficiency of nicotine-treated versus unexposed cells", "setting": "α4β2 V287L nAChR [4]; cells transfected with α4XFP β2 V287L", "result": "lower FRET efficiency"},
      {"measurement": "FRET efficiency after incubation in nicotine compared to control cells", "setting": "α4β2 V287L nAChR [4]; cells transfected with α4 and β2 V287L XFP subunits", "result": "significantly higher"},
      {"measurement": "Shift in stoichiometry in the presence of nicotine", "setting": "α4β2 V287L nAChR [4]; β2 V287L ADNFLE mutation", "result": "shift in stoichiometry towards (α4)2(β2)3"},
      {"measurement": "Shift of WT receptor stoichiometry on incubation in nicotine", "setting": "WT α4β2 nAChRs; 1:1 cDNA α4XFP:β2 or α4:β2XFP, nicotine 1 μM", "result": "shifts the receptor population toward the (α4)2(β2)3 stoichiometry"},
      {"measurement": "Percent of (α4)3(β2)2 for WT nAChRs, FRET", "setting": "WT α4β2 nAChRs; α4:β2 cDNA ratio 1:1, exposed to nicotine, N2a cells", "result": "61 ± 6", "unit": "%"},
      {"measurement": "α4 intersubunit FRET efficiency", "setting": "α4β2 V287L nAChR [5]; α4XFP plus β2V287L", "result": "completely back to WT levels"},
      {"measurement": "Mean β2 intersubunit FRET efficiency", "setting": "α4β2 V287L nAChR [5]; α4 plus β2(V287L)XFP", "result": "increased to a level even higher than the control cells"},
      {"measurement": "Shift of receptor population stoichiometry", "setting": "α4 S248F β2 nAChR", "result": "shifted the population toward the (α4)2(β2)3 stoichiometry"}
    ]}
  ]
}
